Legend:
pERK = experiment: MAPK phosphorylation (western blot), pERK; type: cell-based, human; conditions: FIG. 18
MMP-1 (collagenase-1) = experiment: MMP-1 activity in human cartilage tissue medium; type: cell-based; conditions: FIG. 15
Method: (§1) The joint cartilage of human was provided from the patient who had taken artificial joint surgery (Orthopedics Surgery Dep. of Kyunghee Medical Center). […] The tissue was washed with the medium several times and then the articular tissue was cultured at 37° C. in humidified […] incubator. 1 or 2 days after the incubation, the medium was replaced with new basic medium containing inactivated 5% fetal bovine serum with heat treatment, 10 mM HEPES, and 100 unit/ml of penicillin-streptomycin, and 30 mg of the chondrocyte was transferred to 48-well plate. After culturing for 1 hour, 5 ng/μl of interleukin-1α (IL-1α, R&D system, USA) was added to the medium to induce inflammation and various concentrations of test sample (KM-1), ETCP (SK Chemicals), Celecoxib (CEL, Pfizer Co., USA), and Glucosamine (GLUCO, Sigma Co., USA), i.e., 0.1, 0.2, and 0.4 mg/ml, were added thereto respectively. […] In order to measure proteolytic activity, each 25 μl of medium was added to 96-well plate with 50 μl of the substrate to incubate at 37° C. for 1 hr and the optical density was measured by ELISA reader (Molecular devices, USA) at 450 nm. The activity of each sample on MMP-1 and MMP-13 was determined by calculating the MMP (%) of medium in each well.

[1] = tested on: type II collagen mRNA in cartilage tissue; experiment: Gene expression of Col II (RT-PCR); type: cell-based, human; conditions: IL-1α treated cartilage tissue; FIG. 13
Method: (§2) The joint cartilage of human was provided from the patient who had taken artificial joint surgery (Orthopedics Surgery Dep. of Kyunghee Medical Center). […] The tissue was washed with the medium several times and then the articular tissue was cultured at 37° C. in humidified […] incubator. 1 or 2 days after the incubation, the medium was replaced with new basic medium containing inactivated 5% fetal bovine serum with heat treatment, 10 mM HEPES, and 100 unit/ml of penicillin-streptomycin, and 30 mg of the chondrocyte was transferred to 48-well plate. After culturing for 1 hour, 5 ng/μl of interleukin-1α (IL-1α, R&D system, USA) was added to the medium to induce inflammation and various concentrations of test sample (KM-1), ETCP (SK Chemicals), Celecoxib (CEL, Pfizer Co., USA), and Glucosamine (GLUCO, Sigma Co., USA), i.e., 0.1, 0.2, and 0.4 mg/ml, were added thereto respectively. […] The stained product was washed for 10 minutes with distilled water and the result was determined at UV wavelength (260 nm). The expression of proteoglycan and Col II gene collected from the cartilage tissue and chondrocytic cell of rabbit in above Reference Example 3 was determined and the test was performed by using reverse transcription polymerase chain reaction (RT-PCR) with the method disclosed in Reference Example 4.

MMP-13 (collagenase-13) = experiment: MMP-13 activity in human cartilage tissue medium; type: cell-based; conditions: FIG. 14
Method: as §1

[2] = tested on: proteoglycan mRNA in cartilage tissue; experiment: Gene expression of proteoglycan (RT-PCR); type: cell-based, human; conditions: IL-1α treated cartilage tissue; FIG. 13
Method: as §2

pp 38 = experiment: MAPK phosphorylation (western blot), pp38; type: cell-based, human; conditions: FIG. 18
[3] = tested on: GAG degradation in human articular cartilage tissue; experiment: Dissociation of glycosaminoglycan (DMB assay), IL-1α induced cartilage tissue; type: cell-based; conditions: 0.1, 0.2, 0.4 mg/ml, FIG. 12
Method: The joint cartilage of human was provided from the patient who had taken artificial joint surgery (Orthopedics Surgery Dep. of Kyunghee Medical Center). […] The tissue was washed with the medium several times and then the articular tissue was cultured at 37° C. in humidified […] incubator. 1 or 2 days after the incubation, the medium was replaced with new basic medium containing inactivated 5% fetal bovine serum with heat treatment, 10 mM HEPES, and 100 unit/ml of penicillin-streptomycin, and 30 mg of the chondrocyte was transferred to 48-well plate. After culturing for 1 hour, 5 ng/μl of interleukin-1α (IL-1α, R&D system, USA) was added to the medium to induce inflammation and various concentrations of test sample (KM-1), ETCP (SK Chemicals), Celecoxib (CEL, Pfizer Co., USA), and Glucosamine (GLUCO, Sigma Co., USA), i.e., 0.1, 0.2, and 0.4 mg/ml, were added thereto respectively. […] The concentration of GAG in the culture medium of cartilage tissue incubated with the procedure disclosed in Reference Example 3 was measured by determining the amount of polyanionic substance produced by being reacted with blyscan dye solution and chondroitin sulfate was used as a standard. […] The amount of spectroscopic GAG was determined at 540 nm and the inhibition rate was expressed based on the amount of degradated GAG induced by interleukin-1α (IL-1α).

pJNK = experiment: MAPK phosphorylation (western blot), pJNK; type: cell-based, human; conditions: FIG. 18

O=C(/C=C/c1ccc(O)c(O)c1)O[C@@H]1C[C@](O)(C(=O)O)C[C@@H](O)[C@H]1O [chlorogenic acid]
inhibition of pERK (pERK): inhibited the activity of pERK | inhibition of MMP-1 activity (MMP-1 (collagenase-1)): significantly inhibited the activity of collagenase MMP-1 and MMP-13 in a dose dependent manner | mRNA gene expression of type II collagen [1]: increased mRNA gene expression of proteoglycan and type II collagen | inhibition of MMP-13 activity (MMP-13 (collagenase-13)): significantly inhibited the activity of collagenase MMP-1 and MMP-13 in a dose dependent manner | mRNA gene expression of proteoglycan [2]: increased mRNA gene expression of proteoglycan and type II collagen | inhibition of pp 38 (pp 38): potently inhibited | inhibition of the degradation of GAG [3]: potently inhibited the degradation of GAG | inhibition of pJNK (pJNK): potently inhibited
